# Assay results taken from patent US10538555B2, “Macrocyclic inhibitors of the PD-1/PD-L1 and CD80(B7-1)/PD-L1 protein/protein interactions” (BRISTOL-MYERS SQUIBB COMPANY, priority 2014, dated 2020).
# Where a SMILES comes first, the peptide text is derived from it. Bridges are numbered along the chain shown (N, C = ends). [ ]: non-standard residue; d: D form. Trp(βS-Me) = C[C@@H](c1c[nH]c2ccccc12)[C@H](N)C(=O)O; Phe(3,4,5-F3) = N[C@@H](Cc1cc(F)c(F)c(F)c1)C(=O)O; NMePhe(4-F) = CN[C@@H](Cc1ccc(F)cc1)C(=O)O; Hyp = O=C(O)[C@@H]1C[C@@H](O)CN1; NMeF = CN[C@@H](Cc1ccccc1)C(=O)O; dHyp = O=C(O)[C@H]1C[C@H](O)CN1; NMeNle = CCCC[C@H](NC)C(=O)O; dPip = O=C(O)[C@H]1CCCCN1; NMeA = CN[C@@H](C)C(=O)O; Dab = NCC[C@H](N)C(=O)O; Dap = NC[C@H](N)C(=O)O; Sar = CNCC(=O)O
# Target: T1, Human PD-L1/PD-1 (Homo sapiens, UniProt Q9NZQ7)
# T1 construct: TVMV protease cleavage site (C); made in house; host or cells: HEK293T cells
# Assay: HTRF Human PD-L1/PD-1 binding assay (PD-1-Ig/PD-L1-His)
# Settings: PD-L1-His 10 nM, PD-1-Ig 20 nM; class symbol; read-out: HTRF Human PD-L1/PD-1 Binding Assay IC50 Range
# Summary of the method: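 Step 1: compound with PD-L1-His (10 nM final), 15 min. Step 2: PD-1-Ig (20 nM final), 15 min. Step 3: Eu-cryptate anti-Ig (1 nM) plus APC anti-His (20 nM), 30 min equilibration. Signal taken as 665 nm/620 nm ratio.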
# T1 sequence (Q9NZQ7 with tags, fused parts or gaps): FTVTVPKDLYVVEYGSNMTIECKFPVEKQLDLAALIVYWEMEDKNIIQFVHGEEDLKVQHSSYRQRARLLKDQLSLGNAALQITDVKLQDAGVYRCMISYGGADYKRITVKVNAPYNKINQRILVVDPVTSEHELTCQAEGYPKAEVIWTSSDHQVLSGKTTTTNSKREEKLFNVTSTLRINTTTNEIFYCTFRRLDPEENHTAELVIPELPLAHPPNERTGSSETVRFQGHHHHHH
row,IC50,SMILES
1,1 to 9.9 nM,CCCC[C@H]1C(=O)N(C)[C@@H](CCCC)C(=O)N[C@@H](CCCNC(=N)N)C(=O)N[C@H](C(N)=O)CSCC(=O)N[C@@H](Cc2ccc(O)cc2)C(=O)N(C)[C@@H](C)C(=O)N[C@@H](CC(N)=O)C(=O)N2CCC[C@H]2C(=O)N[C@@H](CC(N)=O)C(=O)N[C@@H](CC(C)C)C(=O)N2C[C@H](O)C[C@H]2C(=O)N[C@@H]([C@@H](C)c2c[nH]c3ccccc23)C(=O)N[C@@H](CO)C(=O)N[C@@H](Cc2c[nH]c3ccccc23)C(=O)N1C [Example 10531] ({CH2CO}-Y[NMeA]NPNL[Hyp][Trp(βS-Me)]SW[NMeNle][NMeNle]RC-NH2; thioether N-14)
2,1 to 9.9 nM,CCCC[C@H]1C(=O)N(C)[C@@H](CCCC)C(=O)N[C@@H](CC(C)C)C(=O)N[C@H](C(N)=O)CSCC(=O)N[C@@H](Cc2ccc(O)cc2)C(=O)N(C)[C@@H](C)C(=O)N[C@@H](CC(N)=O)C(=O)N2CCC[C@H]2C(=O)N[C@@H](CN)C(=O)N[C@@H](CC(C)C)C(=O)N2C[C@H](O)C[C@H]2C(=O)N[C@@H]([C@@H](C)c2c[nH]c3ccccc23)C(=O)N[C@@H](CO)C(=O)N[C@@H](Cc2c[nH]c3ccccc23)C(=O)N1C [Example 10532] ({CH2CO}-Y[NMeA]NP[Dap]L[Hyp][Trp(βS-Me)]SW[NMeNle][NMeNle]LC-NH2; thioether N-14)
3,1 to 9.9 nM,CCCC[C@H]1C(=O)N(C)CC(=O)N[C@@H](CC(=O)O)C(=O)N[C@@H](C(C)C)C(=O)N(C)[C@@H](Cc2ccccc2)C(=O)N[C@@H](Cc2ccc(O)cc2)C(=O)N(C)CC(=O)N[C@@H]([C@@H](C)c2c[nH]c3ccccc23)C(=O)N[C@@H](Cc2ccc(O)cc2)C(=O)N[C@@H](CC(C)C)C(=O)N[C@H](C(=O)NCC(N)=O)CSCC(=O)N[C@@H](Cc2ccccc2)C(=O)N(C)[C@@H](Cc2ccccc2)C(=O)N1C [Example 10533] ({CH2CO}-F[NMeF][NMeNle][Sar]DV[NMeF]Y[Sar][Trp(βS-Me)]YLCG-NH2; thioether N-13)
4,1 to 9.9 nM,CCCC[C@H]1C(=O)N(C)[C@@H](CCCC)C(=O)N[C@@H](CCCNC(=N)N)C(=O)N[C@H](C(=O)NCC(N)=O)CSCC(=O)N[C@@H](Cc2ccc(O)cc2)C(=O)N(C)[C@@H](C)C(=O)N[C@@H](CC(N)=O)C(=O)N2CCC[C@H]2C(=O)N[C@@H](CC(N)=O)C(=O)N[C@@H](CC(C)C)C(=O)N2C[C@H](O)C[C@H]2C(=O)N[C@@H]([C@@H](C)c2c[nH]c3ccccc23)C(=O)N[C@@H](CO)C(=O)N[C@@H](Cc2c[nH]c3ccccc23)C(=O)N1C [Example 10534] ({CH2CO}-Y[NMeA]NPNL[Hyp][Trp(βS-Me)]SW[NMeNle][NMeNle]RCG-NH2; thioether N-14)
5,1 to 9.9 nM,CCCC[C@H]1C(=O)N2CCC[C@@H]2C(=O)N[C@@H](CC(=O)O)C(=O)N[C@@H](C(C)C)C(=O)N(C)[C@@H](Cc2ccccc2)C(=O)N[C@@H](Cc2ccc(O)cc2)C(=O)N2CCC[C@@H]2C(=O)N[C@@H]([C@@H](C)c2c[nH]c3ccccc23)C(=O)N[C@@H](Cc2ccc(O)cc2)C(=O)N[C@@H](CC(C)C)C(=O)N[C@H](C(=O)NCC(N)=O)CSCC(=O)N[C@@H](Cc2ccccc2)C(=O)N(C)[C@@H](Cc2ccccc2)C(=O)N1C [Example 10535] ({CH2CO}-F[NMeF][NMeNle][dP]DV[NMeF]Y[dP][Trp(βS-Me)]YLCG-NH2; thioether N-13)
6,1000 to 10000 nM,CCCC[C@H]1C(=O)N[C@@H](CC(N)=O)C(=O)N2CCC[C@H]2C(=O)N[C@@H](Cc2c[nH]cn2)C(=O)N[C@@H](CCC(N)=O)C(=O)N2C[C@H](O)C[C@H]2C(=O)N[C@@H]([C@@H](C)c2c[nH]c3ccccc23)C(=O)N[C@@H](CO)C(=O)N[C@@H](Cc2c[nH]c3ccccc23)C(=O)N(C)[C@@H](C)C(=O)N(C)[C@@H](C)C(=O)N[C@@H](CC(C)C)C(=O)N[C@H](C(=O)NCC(N)=O)CSCC(=O)N[C@@H](Cc2ccc(O)cc2)C(=O)N1C [Example 10536] ({CH2CO}-Y[NMeNle]NPHQ[Hyp][Trp(βS-Me)]SW[NMeA][NMeA]LCG-NH2; thioether N-14)
7,1000 to 10000 nM,CCCC[C@H]1C(=O)N[C@@H](CC(=O)O)C(=O)N2CCC[C@H]2C(=O)N[C@@H](Cc2c[nH]cn2)C(=O)N[C@@H](CCC(N)=O)C(=O)N2C[C@H](O)C[C@H]2C(=O)N[C@@H]([C@@H](C)c2c[nH]c3ccccc23)C(=O)N[C@@H](CO)C(=O)N[C@@H](Cc2c[nH]c3ccccc23)C(=O)N(C)[C@@H](C)C(=O)N(C)[C@@H](C)C(=O)N[C@@H](C)C(=O)N[C@H](C(=O)NCC(N)=O)CSCC(=O)N[C@@H](Cc2ccc(O)cc2)C(=O)N1C [Example 10539] ({CH2CO}-Y[NMeNle]DPHQ[Hyp][Trp(βS-Me)]SW[NMeA][NMeA]ACG-NH2; thioether N-14)
8,1000 to 10000 nM,CCCC[C@H]1C(=O)N[C@@H](CC(N)=O)C(=O)N2CCC[C@H]2C(=O)N[C@@H](Cc2c[nH]cn2)C(=O)N[C@@H](CCC(=O)O)C(=O)N2C[C@H](O)C[C@H]2C(=O)N[C@@H]([C@@H](C)c2c[nH]c3ccccc23)C(=O)N[C@@H](CCN)C(=O)N[C@@H](Cc2c[nH]c3ccccc23)C(=O)N(C)[C@@H](C)C(=O)N(C)[C@@H](C)C(=O)N[C@@H](CC(C)C)C(=O)N[C@H](C(=O)NCC(N)=O)CSCC(=O)N[C@@H](Cc2ccc(O)cc2)C(=O)N1C [Example 10540] ({CH2CO}-Y[NMeNle]NPHE[Hyp][Trp(βS-Me)][Dab]W[NMeA][NMeA]LCG-NH2; thioether N-14)
9,1 to 9.9 nM,"CC(C)C[C@@H]1NC(=O)[C@H](Cc2ccc(O)cc2)NC(=O)[C@H](Cc2c[nH]c3ccccc23)NC(=O)[C@H]2CCCCN2C(=O)[C@H](Cc2ccc(O)cc2)NC(=O)[C@H](Cc2ccccc2)N(C)C(=O)[C@H](C(C)C)NC(=O)[C@H](CC(=O)O)NC(=O)[C@H]2CCCN2C(=O)[C@H](C)N(C)C(=O)[C@H](Cc2ccc(F)cc2)N(C)C(=O)[C@H](Cc2cc(F)c(F)c(F)c2)NC(=O)CSC[C@@H](C(=O)NCC(N)=O)NC1=O [Example 10542] ({CH2CO}-[Phe(3,4,5-F3)][NMePhe(4-F)][NMeA][dP]DV[NMeF]Y[dPip]WYLCG-NH2; thioether N-13)"
10,1000 to 10000 nM,CCCC[C@H]1C(=O)N[C@@H](CC(=O)O)C(=O)N2CCC[C@H]2C(=O)N[C@@H](Cc2c[nH]cn2)C(=O)N[C@@H](CCC(N)=O)C(=O)N2C[C@H](O)C[C@H]2C(=O)N[C@@H]([C@@H](C)c2c[nH]c3ccccc23)C(=O)N[C@@H](CO)C(=O)N[C@@H](Cc2c[nH]c3ccccc23)C(=O)N(C)[C@@H](C)C(=O)N(C)[C@@H](C)C(=O)N[C@@H](CCC(=O)O)C(=O)N[C@H](C(=O)NCC(N)=O)CSCC(=O)N[C@@H](Cc2ccc(O)cc2)C(=O)N1C [Example 10544] ({CH2CO}-Y[NMeNle]DPHQ[Hyp][Trp(βS-Me)]SW[NMeA][NMeA]ECG-NH2; thioether N-14)
11,1 to 9.9 nM,"CCCC[C@H]1C(=O)N2C[C@@H](O)C[C@@H]2C(=O)N[C@@H](CC(=O)O)C(=O)N[C@@H](C(C)C)C(=O)N(C)[C@@H](Cc2ccccc2)C(=O)N[C@@H](Cc2ccc(O)cc2)C(=O)N2CCC[C@@H]2C(=O)N[C@@H]([C@@H](C)c2c[nH]c3ccccc23)C(=O)N[C@@H](Cc2ccc(O)cc2)C(=O)N[C@@H](CC(C)C)C(=O)N[C@H](C(=O)NCC(N)=O)CSCC(=O)N[C@@H](Cc2cc(F)c(F)c(F)c2)C(=O)N(C)[C@@H](Cc2ccccc2)C(=O)N1C [Example 10551] ({CH2CO}-[Phe(3,4,5-F3)][NMeF][NMeNle][dHyp]DV[NMeF]Y[dP][Trp(βS-Me)]YLCG-NH2; thioether N-13)"
12,1 to 9.9 nM,CCCC[C@H]1C(=O)N(C)[C@@H](CCCC)C(=O)N[C@@H](CCC(=O)O)C(=O)N[C@H](C(=O)NCC(N)=O)CSCC(=O)N[C@@H](Cc2ccc(O)cc2)C(=O)N(C)[C@@H](C)C(=O)N[C@@H](CC(=O)O)C(=O)N2CCC[C@H]2C(=O)N[C@@H](Cc2c[nH]cn2)C(=O)N[C@@H](CCC(N)=O)C(=O)N2C[C@H](O)C[C@H]2C(=O)N[C@@H]([C@@H](C)c2c[nH]c3ccccc23)C(=O)N[C@@H](CO)C(=O)N[C@@H](Cc2c[nH]c3ccccc23)C(=O)N1C [Example 10552] ({CH2CO}-Y[NMeA]DPHQ[Hyp][Trp(βS-Me)]SW[NMeNle][NMeNle]ECG-NH2; thioether N-14)
13,1 to 9.9 nM,CCCC[C@H]1C(=O)N(C)[C@@H](CCCC)C(=O)N[C@@H](C)C(=O)N[C@H](C(=O)NCC(N)=O)CSCC(=O)N[C@@H](Cc2ccc(O)cc2)C(=O)N(C)[C@@H](C)C(=O)N[C@@H](CC(=O)O)C(=O)N2CCC[C@H]2C(=O)N[C@@H](Cc2c[nH]cn2)C(=O)N[C@@H](CCC(N)=O)C(=O)N2C[C@H](O)C[C@H]2C(=O)N[C@@H]([C@@H](C)c2c[nH]c3ccccc23)C(=O)N[C@@H](CO)C(=O)N[C@@H](Cc2c[nH]c3ccccc23)C(=O)N1C [Example 10553] ({CH2CO}-Y[NMeA]DPHQ[Hyp][Trp(βS-Me)]SW[NMeNle][NMeNle]ACG-NH2; thioether N-14)

# Same assay, conditions: PD-L1-His 10 nM, PD-1-Ig 20 nM; read-out: HTRF Human PD-L1/PD-1 Binding Assay IC50
row,IC50,SMILES
1,15 nM,CCCC[C@H]1C(=O)N(C)[C@@H](CCCC)C(=O)N[C@@H](CC(C)C)C(=O)N[C@H](C(=O)NCC(N)=O)CSCC(=O)N[C@@H](Cc2ccc(O)cc2)C(=O)N(C)[C@@H](C)C(=O)N[C@@H](CC(N)=O)C(=O)N2CCC[C@H]2C(=O)N[C@@H](CN)C(=O)N[C@@H](CC(C)C)C(=O)N2C[C@H](O)C[C@H]2C(=O)N[C@@H]([C@@H](C)c2c[nH]c3ccccc23)C(=O)N[C@@H](CO)C(=O)N[C@@H](Cc2c[nH]c3ccccc23)C(=O)N1C [Example 10530] ({CH2CO}-Y[NMeA]NP[Dap]L[Hyp][Trp(βS-Me)]SW[NMeNle][NMeNle]LCG-NH2; thioether N-14)
2,10 nM,CC(C)C[C@@H]1NC(=O)[C@H](Cc2ccc(O)cc2)NC(=O)[C@H](Cc2c[nH]c3ccccc23)NC(=O)[C@H]2CCCCN2C(=O)[C@H](Cc2ccc(O)cc2)NC(=O)[C@H](Cc2ccccc2)N(C)C(=O)[C@H](C(C)C)NC(=O)[C@H](CC(=O)O)NC(=O)[C@H]2CCCN2C(=O)[C@H](C)N(C)C(=O)[C@H](Cc2ccc(F)cc2)N(C)C(=O)[C@H](Cc2ccccc2)NC(=O)CSC[C@@H](C(=O)NCC(N)=O)NC1=O [Example 10543] ({CH2CO}-F[NMePhe(4-F)][NMeA][dP]DV[NMeF]Y[dPip]WYLCG-NH2; thioether N-13)
